Where “and” joins values, the source holds several entries; their conditions need not be identical. Identical values can stand only once. Entries after “also recorded” stand apart in the source; their conditions may differ.
What was measured:
[1] = system: collagen antibody-induced arthritis; assay: Mouse CAIA: ankle histology scores (H & E); assay type: in vivo, Balb C mice; set-up: key: 0: normal; 1: minimal infiltration of pannus in cartilage and subchondral bone; 2: mild infiltration; 3: moderate infiltration; 4: marked infiltration; 5: severe infiltration; details: individual animal
Procedure: Balb C mice (n=10 per cohort) were used to determine the efficacy of Factor H (FH) during […]. The mice were treated with ArthritoMAb (anti-collagen) antibody cocktail (2 mg, i.v.) on day 1, followed 7 days later with an injection of LPS (50 μg, i.p.). On day 8, hind paw volumes were measured for each animal and distributed to various treatment groups.
(§1) Dosing with the different agents was started on day 8 as described in Table 3.
Hind paw volumes were measured on day 8, 11, 12, 13, 15, 19 and 22 (endpoint). The age at start date was 7 to 9 weeks. Body weights were measured bi-weekly to the endpoint (Table 4). At the endpoint, tissue samples were processed for histology and submitted to a pathologist for independent analysis. Sampling 1 was performed at the endpoint. The hind limbs were preserved in 10% formalin. Sampling 2 was performed at the endpoint for group 4 animals. Blood was collected by terminal cardiac puncture. The blood was processed for anti-coagulant. The kidneys were additionally preserved in formalin and followed with 70% EtOH. Samples were scored for inflammation, pannus (granulation tissue), cartilage damage, bone resorption and exostosis (Table 5).

[2] = system: collagen antibody-induced arthritis; assay: Mouse CAIA: clinical score; assay type: in vivo, Balb C mice; set-up: key to Clinical Score, Summary (significance): ns: = not significant; *: = P < 0.05; **: = P < 0.01; ***: = P < 0.001; details: for Clinical Score, Difference in rank sum / Clinical Score, Summary (significance): Vehicle vs agent, Dunn's Multiple Comparison Test; for Max Clin Score, Mean / Clinical Score, Day of Study 8, Mean / Clinical Score, Day of Study 11, Mean / Clinical Score, Day of Study 12, Mean / Clinical Score, Day of Study 13, Mean / Clinical Score, Day of Study 16, Mean / Clinical Score, Day of Study 19, Mean / Clinical Score, Day of Study 22, Mean: group mean; for Max Clin Score, Mean / Clinical Score, Day of Study 8, Mean / Clinical Score, Day of Study 11, Mean / Clinical Score, Day of Study 12, Mean / Clinical Score, Day of Study 13, Mean / Clinical Score, Day of Study 16, Mean / Clinical Score, Day of Study 19, Mean / Clinical Score, Day of Study 22, Mean / Day (of Max Clin Score), Mean: n=10; for Clinical Score, Day of Study 8, Mean / Clinical Score, Day of Study 8: day 8 (start of dosing); for Clinical Score, Day of Study 11, Mean / Clinical Score, Day of Study 11: day 11; for Clinical Score, Day of Study 12, Mean / Clinical Score, Day of Study 12: day 12; for Clinical Score, Day of Study 13, Mean / Clinical Score, Day of Study 13: day 13; for Clinical Score, Day of Study 16, Mean / Clinical Score, Day of Study 16: day 16 (Jul. 1, 2011); for Clinical Score, Day of Study 19, Mean / Clinical Score, Day of Study 19: day 19; for Clinical Score, Day of Study 22, Mean / Clinical Score, Day of Study 22: day 22 (endpoint); for Day (of Max Clin Score) / Max Clin Score / Clinical Score, Day of Study 8 / Clinical Score, Day of Study 11 / Clinical Score, Day of Study 12 / Clinical Score, Day of Study 13 / Clinical Score, Day of Study 16 / Clinical Score, Day of Study 19 / Clinical Score, Day of Study 22: individual animal; for Day (of Max Clin Score) / Day (of Max Clin Score), Mean: day of study; for Max Clin Score: maximum over days 8 to 22; for Clinical Score, Day of Study 8 / Clinical Score, Day of Study 11 / Clinical Score, Day of Study 12 / Clinical Score, Day of Study 13 / Clinical Score, Day of Study 16 / Clinical Score, Day of Study 19 / Clinical Score, Day of Study 22: score 0-60; for Day (of Max Clin Score), Mean: listed as 'Mean'; for Mean Maximum Clinical Score: scored from 0 to 60 (15/limb), sum of 4 limbs, vehicle 45.4
Procedure: The mice were treated with ArthritoMAb (anti-collagen) antibody cocktail (2 mg, i.v.) on day 1, followed 7 days later with an injection of LPS (50 μg, i.p.). On day 8, hind paw volumes were measured for each animal and distributed to various treatment groups.
Factor H was formulated in 20 mM Citrate, 150 mM NaCl, pH=6. […] Ethanercept was formulated as Enbrel™ in saline. Vehicle was formulated in 20 mM Citrate, 150 mM NaCl, pH=6. […] The dosing volume for Factor H and BX12 was 25 mL/kg (0.500 mL/20 g mouse) and adjusted accordingly for body weight.
as §1

[3] = system: pre-sensitized kidney transplants; assay: Early phase kidney allograft histology, HE staining (Example 3); assay type: in vivo, C57BL/6 (B6) mice; details: result in words; POD5 (FIG. 6B)
Procedure: The effect of CFH with or without Adrenomedullin (AM) on kidney graft function, antibody response, and histology was determined following the early phase of transplantation (POD3 and POD5). The pre-sensitized kidney transplants were treated with CFH (8 mg, i.p.) on day −1, day 0 and then every other day. To test whether AM provides additional benefits to renal graft function, an additional group of transplants were treated with a single dose infusion (200 μl, i.v.) of AM (˜100 ug/kg) mixed with CFH (˜1 mg/kg) immediately following the transplant surgery (POD0), in addition to the i.p. injection of CFH (day-1, 0, and every other day).
All mice were sacrificed on POD3 and 5, respectively (˜5/ea). Untreated transplants sacrificed at the same endpoints were used as controls. Graft tissues were harvested for histology and immune-histochemistry (IHC). The experimental groups were as follows: 1) C3H to B6 txs+pre-sensitization+control; 2) C3H to B6 txs+pre-sensitization+CFH (i.p.); and 3) C3H to B6 txs+pre-sensitization+CFH (i.p.)+AM/CFH infusion (at time of transplant).

[4] = system: C3H kidneys grafted into pre-sensitized recipients; assay: Pre-sensitized mouse kidney allograft model, CFH with or without FK506, creatinine (Example 1); assay type: in vivo, C57BL/6 (B6) mice
Description: Male C3H (H-2k) and C57BL/6 (B6, H-2b) mice (25-30 g) were used to determine the efficacy of Complement Factor H (CFH) during transplant rejection. C3H mice served as skin graft and kidney donors for pre-sensitization and kidney transplantation. Male C57BL/c (B6) mice were used as recipients. The B6 recipients were pre-sensitized by transplantation of the donor skin grafts, and were subsequently transplanted with kidney allografts between 15 and 20 days after the skin transplantation. B6 mice were treated with vehicle (controls), CFH (day −1, day 0, then every other day to day 10; 8 mg/mouse, i.p.), FK506 (daily from day −1 to day 10; 1 mg/kg s.c.) or the combination of CFH+FK506 using the same dosage regime as the single treatments. Mice were monitored daily for signs of rejection. Renal function was monitored by measuring serum creatinine levels.

[5] = system: pre-sensitized kidney transplants; assay: Early phase (POD3, POD5) kidney graft function, CFH with or without Adrenomedullin (Example 3); assay type: in vivo, C57BL/6 (B6) mice; details: result in words; POD5, vs. untreated controls (FIG. 6A)
Procedure: The effect of CFH with or without Adrenomedullin (AM) on kidney graft function, antibody response, and histology was determined following the early phase of transplantation (POD3 and POD5). […] To test whether AM provides additional benefits to renal graft function, an additional group of transplants were treated with a single dose infusion (200 μl, i.v.) of AM (˜100 ug/kg) mixed with CFH (˜1 mg/kg) immediately following the transplant surgery (POD0), in addition to the i.p. injection of CFH (day-1, 0, and every other day). CFH is a serum-binding protein for AM. It has been shown that AM influences the complement regulatory function of Factor H by enhancing the cleavage of C3b via Factor I. […] FH concentration will be 112.5 μg/ml). Transfer 220 μl aliquots to sterile tubes and freeze at −70 until ready for use. All mice were sacrificed on POD3 and 5, respectively (˜5/ea). Untreated transplants sacrificed at the same endpoints were used as controls. Graft tissues were harvested for histology and immune-histochemistry (IHC). The experimental groups were as follows: 1) C3H to B6 txs+pre-sensitization+control; 2) C3H to B6 txs+pre-sensitization+CFH (i.p.); and 3) C3H to B6 txs+pre-sensitization+CFH (i.p.)+AM/CFH infusion (at time of transplant).

Etanercept
Score From H & E: Pannus ([1]; score 0-5, endpoint day 22, listed as Group 3): 4
Clinical Score, Difference in rank sum [2]: 3.55
Clinical Score, Summary (significance) [2]: ns
Max Clin Score, Mean [2]: 39.60
Clinical Score, Day of Study 8, Mean [2]: 5.50
Clinical Score, Day of Study 11, Mean [2]: 19.60
Clinical Score, Day of Study 12, Mean [2]: 37.10
Clinical Score, Day of Study 13, Mean [2]: 35.50
Clinical Score, Day of Study 16, Mean [2]: 31.50
Clinical Score, Day of Study 19, Mean [2]: 28.40
Clinical Score, Day of Study 22, Mean [2]: 25.70
Day (of Max Clin Score) [2]: 12 (8×) and 22 and 16
Max Clin Score [2]: 32 and 50 (2×) and 45 and 46 and 35 and 30 and 20 and 34 and 52
Clinical Score, Day of Study 8 [2]: 0 (5×) and 15 and 10 (4×)
Clinical Score, Day of Study 11 [2]: 12 (2×) and 34 and 28 and 4 and 15 and 43 and 11 and 10 and 27
Clinical Score, Day of Study 12 [2]: 32 and 50 (2×) and 45 and 27 and 35 and 26 and 20 and 34 and 52
Clinical Score, Day of Study 13 [2]: 32 and 50 and 45 (2×) and 21 and 35 and 30 and 15 and 34 and 48
Clinical Score, Day of Study 16 [2]: 32 and 49 and 21 and 48 and 25 and 45 and 15 and 10 and 24 and 46
Clinical Score, Day of Study 19 [2]: 32 and 48 and 34 and 25 and 5 and 45 and 20 and 10 and 26 and 37
Clinical Score, Day of Study 22 [2]: 32 and 41 and 34 and 16 (2×) and 40 and 19 and 10 and 23 and 26
Day (of Max Clin Score), Mean [2]: 12.00
Mean Maximum Clinical Score [2]: 39.6^ns

Factor H
Score From H & E: Pannus ([1]; score 0-5, endpoint day 22, listed as Group 4): 1 (4×) and 3
kidney graft morphology (HE staining) [3]: improved morphology with less tubular necrosis on POD5
plasma Cr levels ([4]; POD7, CFH 8 mg/mouse i.p., controls 1.9±0.1): 1.4 ± 0.2 mg/dL
renal allograft function ([4]; result in words, creatinine on POD7 (FIG. 2)): improving renal allograft function
renal function, Cr level [5]: trend of improved renal function
Clinical Score, Difference in rank sum [2]: 8.3
Clinical Score, Summary (significance) [2]: ns
Max Clin Score, Mean [2]: 33.40
Clinical Score, Day of Study 8, Mean [2]: 3.00
Clinical Score, Day of Study 11, Mean [2]: 14.60
Clinical Score, Day of Study 12, Mean [2]: 33.40
Clinical Score, Day of Study 13, Mean [2]: 23.60
Clinical Score, Day of Study 16, Mean [2]: 16.90
Clinical Score, Day of Study 19, Mean [2]: 18.20
Clinical Score, Day of Study 22, Mean [2]: 18.80
Day (of Max Clin Score) [2]: 12
Max Clin Score ([2]; listed as BX12): 37 and 42 (2×) and 20 and 21 and 49 and 30 and 32 and 16 and 45
Clinical Score, Day of Study 8 ([2]; listed as BX12): 5 (3×) and 0 (6×) and 15
Clinical Score, Day of Study 11 ([2]; listed as BX12): 25 and 10 (2×) and 15 (2×) and 5 and 18 and 21 (2×) and 6
Clinical Score, Day of Study 12 ([2]; listed as BX12): 37 and 42 (2×) and 20 and 21 and 49 and 30 and 32 and 16 and 45
Clinical Score, Day of Study 13 ([2]; listed as BX12): 18 and 37 and 34 and 20 (2×) and 10 and 40 and 26 and 15 and 16
Clinical Score, Day of Study 16 ([2]; listed as BX12): 13 and 21 and 15 (2×) and 10 and 1 and 43 and 25 and 6 and 20
Clinical Score, Day of Study 19 ([2]; listed as BX12): 25 and 31 and 20 (2×) and 10 (3×) and 0 and 46 and 7
Clinical Score, Day of Study 22 ([2]; listed as BX12): 24 and 31 and 21 and 10 and 1 and 39 and 15 and 26 and 5 and 16
Day (of Max Clin Score), Mean [2]: 12.00
clinical response / clinical score ([2]; result in words (Tables 6 and 7, FIG. 10), listed as FH): improved clinical response compared to vehicle control animals; also recorded: improves more over Etanercept at later time points (days 15 to 22); also recorded: lower clinical score compared to both vehicle and Etanercept
Mean Maximum Clinical Score [2]: 33.4^ns
